Test results published in PMC4195943, “A novel small-molecule MRCK inhibitor blocks cancer cell invasion” (Cell Communication and Signaling : CCS, 2014).

Experiments:
[1] = biological target: T1, MRCKβ (Homo sapiens, UniProt Q9Y5S2); assay: MLC phosphorylation in MDA-MB-231 cells expressing doxycycline-induced MRCKβ kinase domain (quantitative western blot); type: cell-based
T1 construct: The kinase domains of MRCKβ (1–473), ROCK1 (1–535) or ROCK2 (1–532) were gene synthesized; expressed in transfected cells; host or cells: MDA-MB-231 D3H2LN-Luc Tet3G cells, pTRE3G-MRCKβ (1–473)
T1 sequence (Q9Y5S2 1-473): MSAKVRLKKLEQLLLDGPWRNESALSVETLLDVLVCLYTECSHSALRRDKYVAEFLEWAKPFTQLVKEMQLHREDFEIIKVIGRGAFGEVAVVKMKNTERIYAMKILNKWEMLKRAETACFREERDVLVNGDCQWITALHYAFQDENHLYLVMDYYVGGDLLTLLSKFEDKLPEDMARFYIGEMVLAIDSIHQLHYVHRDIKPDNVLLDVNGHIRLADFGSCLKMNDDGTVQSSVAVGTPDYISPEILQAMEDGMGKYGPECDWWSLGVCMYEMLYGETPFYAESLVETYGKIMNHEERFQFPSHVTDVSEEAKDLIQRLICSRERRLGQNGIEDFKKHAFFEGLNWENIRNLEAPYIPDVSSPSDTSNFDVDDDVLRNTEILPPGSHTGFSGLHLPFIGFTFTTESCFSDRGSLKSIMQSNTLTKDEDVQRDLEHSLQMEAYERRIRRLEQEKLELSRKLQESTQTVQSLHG
Procedure: (A) MDA-MB-231 breast cancer cells expressing doxycycline inducible ROCK1, ROCK2 or MRCKβ kinase domains were established as indicated. Following treatment with doxycycline for 18 hours to induce expression, cell lysates were western blotted with antibodies as indicated.
MDA-MB-231 D3H2LN-Luc cells (Caliper LifeScience) were grown in MEM/EBSS (Hyclone) supplemented with 10% fetal bovine serum (FBS) (Gibco), 1 mM Sodium Pyruvate (Sigma) 2 mM L-glutamine (Gibco), 1× MEM non-essential amino acids (Gibco) plus penicillin-streptomycin (10 Units/ml and 10 μg/ml respectively) at 37°C in 5% CO2 in a humidified incubator. MDA-MB-231 D3H2LN-Luc TetOn MRCKβ, ROCK1 and ROCK2 selective cell lines were grown in the same media with 10% FBS replaced with 10% Tet System Approved FBS (Clontech).
The kinase domains of MRCKβ (1–473), ROCK1 (1–535) or ROCK2 (1–532) were gene synthesized (Genscript) and subcloned into pTRE3G (Clontech). MDA-MB-231 D3H2LN-Luc Tet3G cells were co-transfected with pTRE3G-MRCKβ (1–473), pTRE3G-ROCK1 (1–535) or pTRE3G-ROCK2 (1–532), together with a linear Pur^r-selection marker using Xfect transfection reagent according to manufacturer’s instructions. […] Each clone was treated with or without doxycycline (1 μg/ml) for 24 hours and kinase domain expression and activity determined by western blotting. […]

[2] = system: MDA-MB-231 cells; assay: Matrigel invasion (scratch wound closure, Incucyte) of MDA-MB-231 cells; type: cell-based, human
Procedure: (§1) (A) MDA-MB-231 human breast cancer cells were plated in 96 well plates, then 24 hours later a ~800 μm scratch wound was created. […] All results are shown as mean ± standard error of n ≥ 4 independent replicates. […] Readings were compared to the Alamar Blue metabolism in DMSO treated cells that were used as the viability standard of 100% for each replicate experiment. All results are shown as mean ± standard error of 3 independent replicates.
(§2) MDA-MB-231 cells were plated at 30,000 cells per well in Image Lock 96 well plates (Essen BioScience) in 100 μL complete DMEM medium and after allowing cells to settle for 20 min were incubated overnight at 37°C in 5% CO2 in a humidified incubator. Matrigel (BD Biosciences) was thawed overnight at 4°C, diluted 1:1 with PBS and 100 μL pipetted over cells that had been scratched with the WoundMaker tool (Essen BioScience). Plates were incubated for 1 h, then appropriately diluted drugs added in 100 μL media to achieve final concentrations. Plates were scanned with an Incucyte Zoom (Essen BioSciences) according to manufacturer’s instructions at 3 hour intervals. Cell viability was determined with AlamarBlue (Invitrogen, DAL 1025), which was added to the medium and cells cultured for 6 hours. Absorbances at 570 nm and at 600 nm were measured to assess metabolic activity.

[3] = system: MDA MB 231 cells; assay: Alamar Blue cell viability, MDA-MB-231 cells; type: cell-based, human; settings: 24 hours
Procedure: as §1, §2
MDA MB 231 or SCC12 cells were plated in a 96 well plate and cultured for 24 hours. […] Pictures were taken every 3 hours and confluence was measured using the IncuCyte analysis software. AlamarBlue (Invitrogen, DAL 1025) was added to the medium and the cells were cultured for an additional day. Absorbances at 570 nm and at 600 nm were measured to assess cell health.

Compound	inhibition of MLC phosphorylation induced by MRCKβ ([1]; 3 μM)	inhibition of MDA-MB-231 invasion ([2]; 10 μM)	EC50 ([2]; Homo sapiens, MDA-MB-231, 24 h, read-out: EC50, inhibition of Matrigel invasion (wound closure))	inhibition at 1 µM ([2]; Homo sapiens, MDA-MB-231, 1 μM)	effect on cell viability ([3]; 1 μM)	EC50 ([3]; Homo sapiens, MDA-MB-231, read-out: EC50, cell viability (Alamar Blue metabolism))	inhibition of MRCKβ activity (MLC phosphorylation) ([1]; highest 30 μM concentration)	inhibition of wound closure ([2]; 10 μM)	inhibition of invasion ([2]; 30 μM, 24 h)	effect on cell viability ([3]; 10 μM)
O=C(Nc1cn[nH]c1-c1ccccn1)c1nn(C2CCNCC2)cc1Cl [BDP5290, 4-chloro-1-(4-piperidyl)-N-[5-(2-pyridyl)-1H-pyrazol-4-yl]pyrazole-3-carboxamide]	completely inhibited	virtually complete inhibition	440 nM	> 60%	no effect on cell viability	> 10000 nM	–	–	–	–
C[C@@H](N)[C@H]1CC[C@H](C(=O)Nc2ccncc2)CC1 [Y27632, reference compound]	–	–	–	–	–	–	≤ 50%	~ 40%	≤ 50%	no effect on cell viability
